Test system: p62-RL-HEK cells
Experiment: Cell-based p62-Renilla luciferase reporter assay of autophagy activity
Set-up: species or system Human
Details: positive controls: 3-MA 5 μM, rapamycin 200 nM; 24 hr at 37° C.
Method: FIG. 3. Treatments with BVEE induces autophagy. A. GFP-LC3-HEK cells were treated with BVEE (50 μg/ml) at 37° C. for 24 h. An autophagy inducer, rapamycin, and an autophagy inhibitor, 3-MA, were included as controls. Clarified lysates containing equal amounts of proteins were resolved by SDS-PAGE and analyzed by Western blotting with anti-p62 (top panel), anti-LC3 (middle panel), and anti-GAPDH (bottom panel) antibodies. B. A stable cell line p62-RL-HEK that overexpresses Renilla luciferase-tagged p62 was treated with BVEE (50 μg/ml) at 37° C. for 24 h. Additional treatments with either rapamycin or 3-MA were included as controls. Renilla luciferase signal was determined by the addition of coelenterazine at equal volume to a final concentration of 5 μM. Luminescence emitted by DMSO-treated cells (Control) was referred to as 100% relative Renilla luciferase signal;
FIG. 12. The autophagy-inducing potency of extracts derived from B. variegate (BV) by using different solvents. The p62-RL-HEK cells were treated with or without B. variegate extract ([…]) at 37° C. for 24 h. Additional treatments with either rapamycin (RAP) or 3-MA were included as references. Renilla luciferase (Luc) activity was determined by the addition of coelenterazine to a final concentration of […]. Luminescence emitted by DMSO-treated cells (Control) was referred to as 100% relative Renilla luciferase signal. […]

Cn1cnc(N)c2ncnc1-2 [3-MA, 3-methyladenine]
luciferase signal of p62-RL-HEK cells: significant increase
